Data reported in ChEMBL document CHEMBL4138123, “Design, synthesis and biological evaluation of novel pyrazolochalcones as potential modulators of PI3K/Akt/mTOR pathway and inducers of apoptosis in breast cancer cells” (Eur J Med Chem, 2017).

Experiments:
NCI-H322M = experiment: Cytotoxicity against human NCI-H322M cells assessed as growth inhibition after 48 hrs by sulforhodamine B assay; format: functional; details: for CC50: read-out: LC50 (the source's name)
HCC 2998 = experiment: Cytotoxicity against human HCC2998 cells assessed as growth inhibition after 48 hrs by sulforhodamine B assay; format: functional; details: HCC 2998, 48 h
SW-620 [1] = experiment: Cytotoxicity against human SW620 cells assessed as growth inhibition after 48 hrs by sulforhodamine B assay; format: functional; details: SW-620, 48 h
SK-MEL-2 = experiment: Cytotoxicity against human SK-MEL-2 cells assessed as growth inhibition after 48 hrs by sulforhodamine B assay; format: functional; details: SK-MEL-2, 48 h
UACC-257 = experiment: Cytotoxicity against human UACC257 cells assessed as growth inhibition after 48 hrs by sulforhodamine B assay; format: functional; details: UACC-257, 48 h
SK-OV-3 = experiment: Cytotoxicity against human SKOV3 cells assessed as growth inhibition after 48 hrs by sulforhodamine B assay; format: functional; details: SK-OV-3, 48 h
MCF7 [2] = experiment: Cytotoxicity against human MCF7 cells assessed as growth inhibition after 48 hrs by MTT assay; format: functional, cell-based; details: MCF7, 48 h
OVCAR-5 = experiment: Cytotoxicity against human OVCAR5 cells assessed as cell growth at 0.01 uM after 48 hrs by sulforhodamine B assay relative to control; format: functional; details: OVCAR-5, 48 h, read-out: Activity
OVCAR-4 = experiment: Cytotoxicity against human OVCAR4 cells assessed as cell growth at 0.01 uM after 48 hrs by sulforhodamine B assay relative to control; format: functional; details: OVCAR-4, 48 h, read-out: Activity
SF-268 [3] = experiment: Cytotoxicity against human SF268 cells assessed as cell growth at 0.01 uM after 48 hrs by sulforhodamine B assay relative to control; format: functional; details: SF-268, 48 h, read-out: Activity
KM12 = experiment: Cytotoxicity against human KM12 cells assessed as cell growth at 0.01 uM after 48 hrs by sulforhodamine B assay relative to control; format: functional; details: KM12, 48 h, read-out: Activity
COLO 205 = experiment: Cytotoxicity against human COLO205 cells assessed as cell growth at 0.01 uM after 48 hrs by sulforhodamine B assay relative to control; format: functional; details: COLO 205, 48 h, read-out: Activity
HOP-62 = experiment: Cytotoxicity against human HOP62 cells assessed as cell growth at 0.01 uM after 48 hrs by sulforhodamine B assay relative to control; format: functional; details: HOP-62, 48 h, read-out: Activity
MOLT-4 [4] = experiment: Cytotoxicity against human MOLT4 cells assessed as cell growth at 0.01 uM after 48 hrs by sulforhodamine B assay relative to control; format: functional; details: MOLT-4, 48 h, read-out: Activity
MDA-MB-231 = experiment: Cytotoxicity against human MDA-MB-231 cells assessed as cell growth at 0.01 uM after 48 hrs by sulforhodamine B assay relative to control; format: functional; details: MDA-MB-231, 48 h, read-out: Activity
BT-549 = experiment: Cytotoxicity against human BT549 cells assessed as cell growth at 0.01 uM after 48 hrs by sulforhodamine B assay relative to control; format: functional; details: BT-549, 48 h, read-out: Activity
SW-620 [5] = experiment: Cytotoxicity against human SW620 cells assessed as cell growth at 0.1 uM after 48 hrs by sulforhodamine B assay relative to control; format: functional; details: SW-620, 48 h, read-out: Activity
IGROV-1 = experiment: Cytotoxicity against human IGROV1 cells assessed as cell growth at 0.1 uM after 48 hrs by sulforhodamine B assay relative to control; format: functional; details: IGROV-1, 48 h, read-out: Activity
CCRF-CEM = experiment: Cytotoxicity against human CCRF-CEM cells assessed as cell growth at 1 uM after 48 hrs by sulforhodamine B assay relative to control; format: functional; details: read-out: Activity
MOLT-4 [6] = experiment: Cytotoxicity against human MOLT4 cells assessed as cell growth at 1 uM after 48 hrs by sulforhodamine B assay relative to control; format: functional; details: MOLT-4, 48 h, read-out: Activity
SF-268 [7] = experiment: Cytotoxicity against human SF268 cells assessed as cell growth at 1 uM after 48 hrs by sulforhodamine B assay relative to control; format: functional; details: SF-268, 48 h, read-out: Activity
SNB-19 = experiment: Cytotoxicity against human SNB19 cells assessed as cell growth at 1 uM after 48 hrs by sulforhodamine B assay relative to control; format: functional; details: SNB-19, 48 h, read-out: Activity
SK-MEL-28 = experiment: Cytotoxicity against human SK-MEL-28 cells assessed as cell growth at 1 uM after 48 hrs by sulforhodamine B assay relative to control; format: functional; details: SK-MEL-28, 48 h, read-out: Activity
A498 = experiment: Cytotoxicity against human A498 cells assessed as cell growth at 1 uM after 48 hrs by sulforhodamine B assay relative to control; format: functional; details: A498, 48 h, read-out: Activity
HL-60(TB) = experiment: Cytotoxicity against human HL-60(TB) cells assessed as cell growth at 10 uM after 48 hrs by sulforhodamine B assay relative to control; format: functional; details: HL-60, 48 h, read-out: Activity
SR = experiment: Cytotoxicity against human SR cells assessed as cell growth at 10 uM after 48 hrs by sulforhodamine B assay relative to control; format: functional; details: read-out: Activity
SW-620 [8] = experiment: Cytotoxicity against human SW620 cells assessed as cell growth at 10 uM after 48 hrs by sulforhodamine B assay relative to control; format: functional; details: SW-620, 48 h, read-out: Activity
SF-268 [9] = experiment: Cytotoxicity against human SF268 cells assessed as cell growth at 10 uM after 48 hrs by sulforhodamine B assay relative to control; format: functional; details: SF-268, 48 h, read-out: Activity
Malme-3M = experiment: Cytotoxicity against human MALME-3M cells assessed as cell growth at 10 uM after 48 hrs by sulforhodamine B assay relative to control; format: functional; details: read-out: Activity
NCI/ADR-RES [10] = experiment: Cytotoxicity against human NCI/ADR-RES cells assessed as cell growth at 10 uM after 48 hrs by sulforhodamine B assay relative to control; format: functional; details: read-out: Activity
MCF7 [11] = experiment: Cytotoxicity against human MCF7 cells assessed as cell growth at 10 uM after 48 hrs by sulforhodamine B assay relative to control; format: functional; details: MCF7, 48 h, read-out: Activity
T47D = experiment: Cytotoxicity against human T47D cells assessed as cell growth at 10 uM after 48 hrs by sulforhodamine B assay relative to control; format: functional; details: read-out: Activity
A549 = experiment: Cytotoxicity against human A549/ATCC cells assessed as cell growth at 100 uM after 48 hrs by sulforhodamine B assay relative to control; format: functional; details: A549, 48 h, read-out: Activity
NCI-H460 = experiment: Cytotoxicity against human NCI-H460 cells assessed as cell growth at 100 uM after 48 hrs by sulforhodamine B assay relative to control; format: functional; details: NCI-H460, 48 h, read-out: Activity
NCI/ADR-RES [12] = experiment: Cytotoxicity against human NCI/ADR-RES cells assessed as cell growth at 100 uM after 48 hrs by sulforhodamine B assay relative to control; format: functional; details: read-out: Activity
NCI-H23 = experiment: Cytotoxicity against human NCI-H23 cells assessed as cell growth at 10 uM after 48 hrs by sulforhodamine B assay relative to control; format: functional; details: NCI-H23, 48 h, read-out: Activity

`COc1cc(C(=O)/C=C/c2cc(-c3cc(OC)c(OC)c(OC)c3)n[nH]2)cc(OC)c1OC` was tested, and the TGI (NCI-H322M) was 4.85 µM, the CC50 (NCI-H322M) was 14.4 µM and the LC50 (HCC 2998) was 6.31 µM. It also gave a TGI (HCC 2998) of 3.39 µM, an LC50 (lethal concentration, 50% net cell kill) (SW-620 [1]) of 5.97 µM and a TGI (SW-620 [1]) of 3.08 µM. For the same molecule, the LC50 (concentration killing 50% of cells) (SK-MEL-2) was 8.32 µM, the TGI (SK-MEL-2) was 4.04 µM and the LC50 (UACC-257) was 5.71 µM. For the same molecule, the TGI (UACC-257) was 2.99 µM, the LC50 (SK-OV-3) was 33.4 µM and the TGI (SK-OV-3) was 11.1 µM. The IC50 (MCF7 [2]) was 0.43 µM, the growth at 0.01 µM (OVCAR-5) was 97% and the growth at 0.01 µM (OVCAR-4) was 95%. The growth at 0.01 µM (SF-268 [3]) was 99%, the growth at 0.01 µM (KM12) was 101% and the growth at 0.01 µM (COLO 205) was 103%. For the same molecule, the growth at 0.01 µM (HOP-62) was 97%, the growth at 0.01 µM (MOLT-4 [4]) was 104% and the growth at 0.01 µM (MDA-MB-231) was 110%. It also gave a growth at 0.01 µM (BT-549) of 102%, a growth at 0.1 µM (SW-620 [5]) of 97% and a growth at 0.1 µM (IGROV-1) of 103%. It also gave a growth at 1 µM (CCRF-CEM) of 67%, a growth at 1 µM (MOLT-4 [6]) of 81% and a growth at 1 µM (SF-268 [7]) of 89%. For the same molecule, the growth at 1 µM (SNB-19) was 82%, the growth at 1 µM (SK-MEL-28) was 100% and the growth at 1 µM (A498) was 80%. For the same molecule, the growth at 10 µM (HL-60(TB)) was -28%, the growth at 10 µM (SR) was 12% and the growth at 10 µM (SW-620 [8]) was -89%. For the same molecule, the growth at 10 µM (SF-268 [9]) was -45%, the growth at 10 µM (Malme-3M) was -57% and the growth at 10 µM (NCI/ADR-RES [10]) was 12%. The growth at 10 µM (MCF7 [11]) was -85%, the growth at 10 µM (T47D) was -82% and the growth at 100 µM (A549) was -66%. For the same molecule, the growth at 100 µM (NCI-H460) was -55% and the growth at 100 µM (NCI/ADR-RES [12]) was -24%.
For `COc1ccc(C(=O)/C=C/c2cc(-c3ccc(OC)c(OC)c3)n[nH]2)cc1OC`, the GI50 (NCI-H322M) was 2.67 µM, the TGI (NCI-H322M) was 8.23 µM and the CC50 (NCI-H322M) was over 100 µM. It also gave a GI50 (HCC 2998) of 1.74 µM, a TGI (HCC 2998) of 3.19 µM and a GI50 (SW-620 [1]) of 1.5 µM. For the same molecule, the TGI (SW-620 [1]) was 5.41 µM, the GI50 (SK-MEL-2) was 2.46 µM and the TGI (SK-MEL-2) was 5.17 µM. It also gave a GI50 (UACC-257) of 2.16 µM, a TGI (UACC-257) of 5.02 µM and a GI50 (SK-OV-3) of 3.13 µM. For the same molecule, the TGI (SK-OV-3) was 33.3 µM, the IC50 (MCF7 [2]) was 0.8 µM and the growth at 0.01 µM (OVCAR-5) was 88%. It also gave a growth at 0.01 µM (OVCAR-4) of 106%, a growth at 0.01 µM (SF-268 [3]) of 96% and a growth at 0.01 µM (KM12) of 102%. The growth at 0.01 µM (COLO 205) was 90%, the growth at 0.01 µM (HOP-62) was 83% and the growth at 0.01 µM (MOLT-4 [4]) was 103%. It also gave a growth at 0.01 µM (MDA-MB-231) of 108%, a growth at 0.01 µM (BT-549) of 84% and a growth at 0.1 µM (SW-620 [5]) of 95%. For the same molecule, the growth at 0.1 µM (IGROV-1) was 104%, the growth at 1 µM (CCRF-CEM) was 15% and the growth at 1 µM (MOLT-4 [6]) was 73%. The growth at 1 µM (SF-268 [7]) was 74%, the growth at 1 µM (SNB-19) was 78% and the growth at 1 µM (SK-MEL-28) was 81%. The growth at 1 µM (A498) was 63%, the growth at 10 µM (HL-60(TB)) was 4% and the growth at 10 µM (NCI-H23) was -30%. For the same molecule, the growth at 10 µM (SW-620 [8]) was -24%, the growth at 10 µM (SF-268 [9]) was -1% and the growth at 10 µM (Malme-3M) was -27%. For the same molecule, the growth at 10 µM (NCI/ADR-RES [10]) was 16%, the growth at 10 µM (MCF7 [11]) was -5% and the growth at 10 µM (T47D) was -13%. The growth at 100 µM (A549) was -19%, the growth at 100 µM (NCI-H460) was -42% and the growth at 100 µM (NCI/ADR-RES [12]) was -15%.
`COc1ccc(-c2cc(/C=C/C(=O)c3ccc4c(c3)OCO4)[nH]n2)cc1OC` gave a GI50 (NCI-H322M) of 2.67 µM, a GI50 (HCC 2998) of 1.74 µM and a GI50 (SW-620 [1]) of 1.5 µM. It also gave a GI50 (SK-MEL-2) of 2.46 µM, a GI50 (UACC-257) of 2.16 µM and a GI50 (SK-OV-3) of 3.13 µM. It also gave an IC50 (MCF7 [2]) of 1.5 µM.
